Experimental findings from article PMC6389425 (Journal of molecular biology, 2019) are described below.

Residue numbers refer to the chain shown, from its start.

The target of one test is T1, Rg3GUS (Mediterraneibacter gnavus, UniProt Z9EEQ2OTY4).
T1 sequence (Z9EEQ2OTY4 24-777): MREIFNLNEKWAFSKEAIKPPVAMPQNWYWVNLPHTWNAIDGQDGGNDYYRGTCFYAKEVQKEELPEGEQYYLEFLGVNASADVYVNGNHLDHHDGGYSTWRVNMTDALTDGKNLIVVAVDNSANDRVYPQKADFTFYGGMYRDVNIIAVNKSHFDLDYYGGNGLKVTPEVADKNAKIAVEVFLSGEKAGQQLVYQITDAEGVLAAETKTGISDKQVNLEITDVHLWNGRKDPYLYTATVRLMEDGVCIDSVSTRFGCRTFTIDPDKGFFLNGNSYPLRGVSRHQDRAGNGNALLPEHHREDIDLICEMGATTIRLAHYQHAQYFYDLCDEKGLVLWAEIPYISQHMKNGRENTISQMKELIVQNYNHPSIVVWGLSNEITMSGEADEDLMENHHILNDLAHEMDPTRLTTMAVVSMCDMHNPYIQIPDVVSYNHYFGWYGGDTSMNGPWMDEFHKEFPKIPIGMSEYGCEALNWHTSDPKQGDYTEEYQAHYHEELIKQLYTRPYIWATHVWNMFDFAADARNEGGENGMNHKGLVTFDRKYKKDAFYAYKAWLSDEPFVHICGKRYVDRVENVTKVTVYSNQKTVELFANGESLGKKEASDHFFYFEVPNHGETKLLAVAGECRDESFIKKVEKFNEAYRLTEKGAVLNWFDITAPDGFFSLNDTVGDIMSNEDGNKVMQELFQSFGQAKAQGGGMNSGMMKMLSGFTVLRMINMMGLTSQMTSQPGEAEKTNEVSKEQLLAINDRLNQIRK
Kind of test: fluorescence of 4-methylumbelliferone release, initial rates. It is filed as biochemical. The settings on record: pH 6.5 HEPES or pH 5.5 acetate; FMN added (5 μL of 25 μM in 50 μL).

For test [1], the target named is T2, Fp2GUS (Faecalibacterium prausnitzii, UniProt D4K3H3).
T2 sequence (D4K3H3 1-746): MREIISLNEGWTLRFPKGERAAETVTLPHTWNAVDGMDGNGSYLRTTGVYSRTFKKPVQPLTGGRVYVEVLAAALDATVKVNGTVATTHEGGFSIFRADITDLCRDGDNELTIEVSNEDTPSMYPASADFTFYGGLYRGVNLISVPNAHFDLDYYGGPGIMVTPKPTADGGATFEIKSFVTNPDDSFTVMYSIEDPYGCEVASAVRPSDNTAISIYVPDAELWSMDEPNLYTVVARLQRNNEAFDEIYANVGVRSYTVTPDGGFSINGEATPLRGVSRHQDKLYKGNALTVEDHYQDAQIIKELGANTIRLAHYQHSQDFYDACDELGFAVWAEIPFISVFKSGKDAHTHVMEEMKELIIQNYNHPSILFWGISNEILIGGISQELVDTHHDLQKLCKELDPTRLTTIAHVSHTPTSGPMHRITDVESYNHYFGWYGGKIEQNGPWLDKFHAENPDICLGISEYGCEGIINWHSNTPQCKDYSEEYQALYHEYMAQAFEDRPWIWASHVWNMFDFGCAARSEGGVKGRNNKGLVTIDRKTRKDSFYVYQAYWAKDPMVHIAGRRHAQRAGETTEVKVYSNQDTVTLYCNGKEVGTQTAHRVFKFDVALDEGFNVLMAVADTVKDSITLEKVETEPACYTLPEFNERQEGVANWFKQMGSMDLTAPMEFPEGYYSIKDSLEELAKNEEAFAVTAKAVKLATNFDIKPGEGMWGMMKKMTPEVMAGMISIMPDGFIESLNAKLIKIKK
The test is described as above. It is filed as biochemical. The settings on record: pH 6.5 HEPES or pH 5.5 acetate; FMN added (5 μL of 25 μM in 50 μL).

The target of a further test is T3, RiGUS (Roseburia inulinivorans, UniProt Z9MQZ9NYJ7).
T3 sequence (Z9MQZ9NYJ7 1-736): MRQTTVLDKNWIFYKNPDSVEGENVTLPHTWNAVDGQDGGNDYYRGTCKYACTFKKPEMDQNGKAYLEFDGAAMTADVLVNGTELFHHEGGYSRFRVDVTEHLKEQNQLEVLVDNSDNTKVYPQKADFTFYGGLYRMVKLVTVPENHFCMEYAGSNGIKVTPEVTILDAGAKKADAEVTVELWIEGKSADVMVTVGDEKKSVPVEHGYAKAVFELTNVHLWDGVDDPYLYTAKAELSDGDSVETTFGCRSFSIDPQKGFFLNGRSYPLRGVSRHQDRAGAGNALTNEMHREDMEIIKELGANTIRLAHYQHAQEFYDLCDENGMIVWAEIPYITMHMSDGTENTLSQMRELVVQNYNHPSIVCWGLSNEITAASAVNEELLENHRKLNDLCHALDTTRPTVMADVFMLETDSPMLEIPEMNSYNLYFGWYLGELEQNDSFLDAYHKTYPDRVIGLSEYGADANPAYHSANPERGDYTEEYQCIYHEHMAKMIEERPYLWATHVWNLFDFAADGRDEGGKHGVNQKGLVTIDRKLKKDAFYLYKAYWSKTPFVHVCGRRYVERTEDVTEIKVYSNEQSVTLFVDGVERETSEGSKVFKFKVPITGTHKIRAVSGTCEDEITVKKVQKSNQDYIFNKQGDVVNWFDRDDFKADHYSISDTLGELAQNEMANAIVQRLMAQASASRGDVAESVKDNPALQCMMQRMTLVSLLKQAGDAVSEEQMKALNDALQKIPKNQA
The test is described as above. It is filed as biochemical. To be noted: pH 6.5 HEPES or pH 5.5 acetate; FMN added (5 μL of 25 μM in 50 μL).

Test [2] addresses T4, Rh2GUS (Roseburia hominis, UniProt Z9OYF2D7T4, Y182A).
T4 sequence (Z9OYF2D7T4 24-780 Y182A): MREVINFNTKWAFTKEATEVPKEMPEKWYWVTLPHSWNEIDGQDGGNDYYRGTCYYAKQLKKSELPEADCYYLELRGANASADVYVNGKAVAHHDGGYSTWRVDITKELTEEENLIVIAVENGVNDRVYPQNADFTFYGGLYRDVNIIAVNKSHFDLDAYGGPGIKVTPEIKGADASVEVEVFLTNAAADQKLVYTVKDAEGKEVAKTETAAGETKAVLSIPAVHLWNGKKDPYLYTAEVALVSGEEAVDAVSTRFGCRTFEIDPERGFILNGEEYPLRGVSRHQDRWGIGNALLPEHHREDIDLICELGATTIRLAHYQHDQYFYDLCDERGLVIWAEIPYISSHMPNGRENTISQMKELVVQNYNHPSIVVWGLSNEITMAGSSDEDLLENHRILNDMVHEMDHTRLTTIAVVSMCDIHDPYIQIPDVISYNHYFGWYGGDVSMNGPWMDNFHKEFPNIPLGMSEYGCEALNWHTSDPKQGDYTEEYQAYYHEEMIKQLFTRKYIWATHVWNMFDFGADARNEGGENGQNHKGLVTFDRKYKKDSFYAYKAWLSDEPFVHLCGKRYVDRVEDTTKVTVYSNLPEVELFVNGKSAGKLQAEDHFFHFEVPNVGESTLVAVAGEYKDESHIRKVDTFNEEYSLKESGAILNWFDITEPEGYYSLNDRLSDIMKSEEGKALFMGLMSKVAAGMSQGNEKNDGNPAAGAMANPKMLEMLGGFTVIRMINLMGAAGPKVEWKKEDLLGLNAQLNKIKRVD
Described as above. It is filed as biochemical. To be noted: pH 6.5 HEPES or pH 5.5 acetate; no FMN added.

Test [3] deals with T5, Rh2GUS (Roseburia hominis, UniProt Z9OYF2D7T4).
T5 sequence (Z9OYF2D7T4 24-780): T4 sequence (Z9OYF2D7T4 24-780 Y182A) with A159Y
The test is described as above. Type of test: biochemical. The settings on record: pH 6.5 HEPES or pH 5.5 acetate; FMN added (5 μL of 25 μM in 50 μL).

The target of a further test is BvGUS. Kind of test: isothermal titration calorimetry. It is filed as binding, Butyrivibrio fibrisolvens. The settings on record: 25 °C; 20 mM HEPES, 50 mM NaCl, pH 7.4. For orientation: Isothermal titration calorimetry measures the heat released or taken up as one component is titrated into another.
For test [4], the target named is T2, Fp2GUS. Nature of the test: isothermal titration calorimetry. Type of test: binding.

For the molecule `Cc1cc(=O)oc2cc(O[C@@H]3O[C@H](C(=O)O)[C@@H](O)[C@H](O)[C@H]3O)ccc12` [4-MUG], the KM entry was “Each GUS was able to hydrolyze the fluorescent reporter substrate 4-methylumbelliferyl glucuronide (4-MUG)” at Rg3GUS; “Each GUS was able to hydrolyze the fluorescent reporter substrate 4-methylumbelliferyl glucuronide (4-MUG)” on Fp2GUS [1]; “Each GUS was able to hydrolyze the fluorescent reporter substrate 4-methylumbelliferyl glucuronide (4-MUG)” on RiGUS; “FMN-binding mutants of Rh2GUS, Rg3GUS, and BvGUS all display significantly higher KM values than WT” at Rh2GUS [2]; “Each GUS was able to hydrolyze the fluorescent reporter substrate 4-methylumbelliferyl glucuronide (4-MUG)” at Rh2GUS [3].
In the case of `Cc1cc2nc3c(=O)[nH]c(=O)nc-3n(C[C@H](O)[C@H](O)[C@H](O)COP(=O)(O)O)c2cc1C` [FMN], the values for the Kd on BvGUS and at Fp2GUS [4] were 1270 nM and 1050 ± 60 nM, respectively.
